# Calls of active or inactive are those of the source. The rule behind the calls is not given here.
# How the values were obtained:
# EJ-28 [1] = experiment: Induction of autophagy in human EJ-28 cells assessed as autophagic flux at 5 to 12.5 uM incubated for 36 to 48 hrs by flow cytometry analysis; type: functional, cell-based; settings: dose 5-12.5 µM, time 36-48 hrs
# EJ-28 [2] = experiment: Induction of autophagy in human EJ-28 cells assessed as increase in green fluorescence intensity at 5 to 12.5 uM incubated for 36 to 48 hrs by flow cytometry analysis; type: functional, cell-based; settings: dose 5-12.5 µM, time 36-48 hrs
# EJ-28 [3] = experiment: Induction of cell cycle arrest in human EJ-28 cells assessed as accumulation of cells at sub-G0/G1 phase at 1.25 uM incubated for 48 hrs by propidium iodide staining based flow cytometry (reference value: 48%); type: functional
# EJ-28 [4] = experiment: Induction of apoptosis in human EJ-28 cells assessed as upregulation of Bax expression incubated for 48 to 72 hrs by Western blotting analysis; type: functional, cell-based; settings: time 48-72 hrs
# EJ-28 [5] = experiment: Induction of apoptosis in human EJ-28 cells assessed as upregulation of PARP expression incubated for 24 hrs by Western blotting analysis; type: functional, cell-based
# EJ-28 [6] = experiment: Induction of autophagy in human EJ-28 cells assessed as increase in green fluorescence intensity at 5 to 12.5 uM incubated for 24 hrs by flow cytometry analysis; type: functional, cell-based; settings: dose 5-12.5 µM
# EJ-28 [7] = experiment: Induction of autophagy in human EJ-28 cells assessed as upregulation of Atg16L1 expression at 5 to 12.5 uM incubated for 24 to 72 hrs by Western blot analysis; type: functional, cell-based; settings: dose 5-12.5 µM, time 24-72 hrs
# EJ-28 [8] = experiment: Induction of apoptosis in human EJ-28 cells assessed as downregulation of procaspase-7 expression incubated for 24 to 72 hrs by Western blotting analysis; type: functional, cell-based; settings: time 24-72 hrs
# EJ-28 [9] = experiment: Induction of apoptosis in human EJ-28 cells assessed as upregulation of cleaved bid expression incubated for 24 hrs by Western blotting analysis; type: functional, cell-based
# [10] = Selectivity index, ratio of IC50 for cytotoxicity against human NHDF cells to IC50 for cytotoxicity against human A549 cells; type: toxicity, cell-based; settings: NHDF cells and A549 cells, read-out: Ratio IC50
# EJ-28 [11] = experiment: Induction of cell cycle arrest in human EJ-28 cells assessed as accumulation of cells at G2/M phase at 1.25 uM incubated for 48 hrs by propidium iodide staining based flow cytometry (reference value: 20%); type: functional
# EJ-28 [12] = experiment: Induction of cell cycle arrest in human EJ-28 cells assessed as accumulation of cells at G2/M phase at 5 uM incubated for 48 hrs by propidium iodide staining based flow cytometry (reference value: 20%); type: functional
# [13] = Toxicity in Zebrafish embryo assessed as mortality at 12.5 to 50 uM administered for 4 hrs post fertilization and measured after 72 hours post fertilization; set-up: species or system Danio rerio; settings: in vivo, dose 12.5-50 µM
# EJ-28 [14] = experiment: Antiproliferative activity against human EJ-28 cells assessed as reduction in cell viability at 20 uM measured for 72 hrs by MTT assay; type: functional, cell-based
# [15] = Toxicity in Zebrafish embryo assessed as mortality at 12.5 to 50 uM administered for 4 hrs post fertilization and measured after 6 days post fertilization; set-up: species or system Danio rerio; settings: in vivo, 144 h, dose 12.5-50 µM, time 6 day
# EJ-28 [16] = experiment: Induction of autophagy in human EJ-28 cells assessed as downregulation of mTOR expression at 5 to 12.5 uM incubated for 24 hrs by Western blot analysis; type: functional, cell-based; settings: dose 5-12.5 µM
# A549 = experiment: Antiproliferative activity against human A549 cells assessed as reduction in cell viability at 20 uM measured for 72 hrs by MTT assay; type: functional, cell-based
# [17] = Toxicity in Zebrafish embryo assessed as oedema at 12.5 uM administered for 4 hrs post fertilization and measured after 3 days post fertilization; set-up: species or system Danio rerio; settings: in vivo, 72 h, time 3 day
# EJ-28 [18] = experiment: Induction of cell cycle arrest in human EJ-28 cells assessed as accumulation of cells at sub-G0/G1 phase at 5 uM incubated for 48 hrs by propidium iodide staining based flow cytometry (reference value: 48%); type: functional
# EJ-28 [19] = experiment: Induction of autophagy in human EJ-28 cells assessed as downregulation of EGFR expression at 5 to 12.5 uM incubated for 24 hrs by Western blot analysis; type: functional, cell-based; settings: dose 5-12.5 µM
# EJ-28 [20] = experiment: Induction of apoptosis in human EJ-28 cells assessed as upregulation of Mcl-1 expression incubated for 24 hrs by Western blotting analysis; type: functional, cell-based
# SV-HUC-1 = experiment: Induction of morphological changes in human SV-HUC-1 cells at 7.5 uM incubated for 24 to 72 hrs by microscopic analysis; type: functional, cell-based; settings: time 24-72 hrs
# EJ-28 [21] = experiment: Induction of cell cycle arrest in human EJ-28 cells assessed as accumulation of cells at sub-G0/G1 phase at 2.5 uM incubated for 48 hrs by propidium iodide staining based flow cytometry (reference value: 48%); type: functional
# EJ-28 [22] = experiment: Induction of cell cycle arrest in human EJ-28 cells assessed as accumulation of cells at S phase at 10 uM incubated for 48 hrs by propidium iodide staining based flow cytometry (reference value: 30%); type: functional
# EJ-28 [23] = experiment: Induction of apoptosis in human EJ-28 cells assessed as upregulation of Bcl-xL expression incubated for 24 hrs by Western blotting analysis; type: functional, cell-based
# EJ-28 [24] = experiment: Induction of apoptosis in human EJ-28 cells assessed as upregulation of Bcl-2 expression incubated for 24 hrs by Western blotting analysis; type: functional, cell-based
# EJ-28 [25] = experiment: Induction of apoptosis in human EJ-28 cells assessed as downregulation of procaspase-3 expression incubated for 24 to 72 hrs by Western blotting analysis; type: functional, cell-based; settings: time 24-72 hrs
# HT-1080 = experiment: Cytotoxicity against human HT-1080 cells assessed inhibition of cell growth incubated for 72 hrs by MTT assay; type: functional, cell-based; settings: HT-1080, 72 h
# HEK293 = experiment: Cytotoxicity against HEK293 cells expressing EGFR assessed as inhibition of cell growth incubated for 24 to 72 hrs; type: toxicity, cell-based; settings: human, time 24-72 hrs
# EJ-28 [26] = experiment: Induction of morphological changes in human EJ-28 cells assessed as intracellular vacuolization at 7.5 uM incubated for 24 to 72 hrs by microscopic analysis; type: functional, cell-based; settings: time 24-72 hrs
# SW-620 = experiment: Cytotoxicity against human SW620 cells assessed inhibition of cell growth incubated for 72 hrs by MTT assay; type: functional, cell-based; settings: SW-620, 72 h
# EJ-28 [27] = experiment: Inhibition of colony formation in human EJ-28 cells at 2.5 to 10 uM incubated for 10 days by crystal violet staining based assay; type: functional, cell-based; settings: dose 2.5-10 µM, time 10.0 day
# EJ-28 [28] = experiment: Induction of autophagy in human EJ-28 cells assessed as upregulation of LC3B-2 expression at 5 to 12.5 uM incubated for 24 to 72 hrs by Western blot analysis; type: functional, cell-based; settings: dose 5-12.5 µM, time 24-72 hrs
# [29] = Selectivity index, ratio of IC50 for cytotoxicity against human NHDF cells to IC50 for cytotoxicity against human SW620 cells
# EJ-28 [30] = experiment: Induction of apoptosis in human EJ-28 cells assessed as upregulation of phosphorylated Bcl-2 level incubated for 24 to 72 hrs by Western blotting analysis; type: functional, cell-based; settings: time 24-72 hrs
# EJ-28 [31] = experiment: Induction of cell cycle arrest in human EJ-28 cells assessed as accumulation of cells at S phase at 1.25 uM incubated for 48 hrs by propidium iodide staining based flow cytometry (reference value: 30%); type: functional
# EJ-28 [32] = experiment: Induction of autophagy in human EJ-28 cells assessed as upregulation of Atg5 expression at 5 to 12.5 uM incubated for 24 to 72 hrs by Western blot analysis; type: functional, cell-based; settings: dose 5-12.5 µM, time 24-72 hrs
smiles,measurement,setting,value
O=[N+]([O-])c1cccc(/C=C/c2cc(-c3cc(Cl)ccc3O)n(-c3ccccc3)n2)c1,Activity,EJ-28 [1],Active
same,Activity,EJ-28 [2],inactive
same,Activity,EJ-28 [3],53%
same,Activity,EJ-28 [4],Active
same,Activity,EJ-28 [5],Active
same,Activity,EJ-28 [6],Active
same,Activity,EJ-28 [7],inactive
same,Activity,EJ-28 [8],Active
same,Activity,EJ-28 [9],Active
same,selectivity ratio,[10],2.6
same,Activity,EJ-28 [11],18%
same,Activity,EJ-28 [12],19%
same,Activity,[13],Non-Toxic
same,Activity,EJ-28 [14],Active
same,Activity,[15],Non-Toxic
same,Activity,EJ-28 [16],Active
same,Activity,A549,Active
same,Activity,[17],Non-Toxic
same,Activity,EJ-28 [18],58%
same,Activity,EJ-28 [19],Active
same,Activity,EJ-28 [20],Active
same,Activity,SV-HUC-1,inactive
same,Activity,EJ-28 [21],57%
same,Activity,EJ-28 [22],23%
same,Activity,EJ-28 [23],inactive
same,Activity,EJ-28 [24],Active
same,Activity,EJ-28 [25],Active
same,IC50,HT-1080,13 µM
same,Activity,HEK293,Non-Toxic
same,Activity,EJ-28 [26],Active
same,IC50,SW-620,10 µM
same,inhibition,EJ-28 [27],Active
same,Activity,EJ-28 [28],Active
same,Ratio IC50,[29],2.6
same,Activity,EJ-28 [30],Active
same,Activity,EJ-28 [31],27%
same,Activity,EJ-28 [32],Active
